Holding throughout (experiment): Broth microdilution MIC in iron-depleted CAMHB (IDM)
Common to all, as to type: cell-based
A general note: Dilution methods test growth across graded concentrations, often in twofold steps.

The test system of test [1] is A. baumannii ATCC 17978. The following applies: Acinetobacter baumannii. The procedure:
(§1) Example IV: In Vitro Antibacterial Assays in Iron-Depleted Cation-Adjusted Mueller-Hinton Broth
(§2) To determine the ability of test compounds to inhibit the growth bacterial strains under conditions of iron-depletion, classic cell based broth microdilution minimum inhibitory concentration (MIC) assays were employed. MIC assays are performed according to CLSI methods except where otherwise noted (CLSI, 2018 and CLSI, 2019). The reference type strain E. coli ATCC 25922 was used to determine the ability of the PBP inhibitors to inhibit the growth of Enterobacteriaceae. Wild-type P. aeruginosa ATCC 27853, A. baumannii ATCC 17978 and A. baumannii ATCC 19606, along with the hyper-permeable P. aeruginosa ATCC 35151, an engineered efflux pump-compromised strain of P. aeruginosa (ΔmexAB-oprM), and an engineered efflux-pump compromised strain of A. baumannii IL123 (ABΔ3-ARAEcPore) were used to determine the ability of PBP inhibitors to penetrate the outer membrane of P. aeruginosa and A. baumannii and assess antibacterial activity against these important gram-negative organisms.
(§3) Briefly, cryo-preserved bacterial cultures of challenge strains are streaked for isolation on appropriate agar medium, in this case cation-adjusted Mueller Hinton agar. Following incubation to allow growth of the colonies, plates are sealed with parafilm and stored refrigerated for up to two weeks. For preparation of assay inoculum and to ensure low variability, at least 5 colonies are picked from the agar plates with an inoculating loop and aseptically transferred to a culture tube containing 3 mL of iron-depleted cation-adjusted Mueller Hinton broth (IDM)—see below for IDM preparation. The broth culture is grown for 3-5 hours at 37° C. with shaking at 200 rpm. Meanwhile, 2-fold serial dilutions of test compounds are conducted in a 96-well plate with a final volume of 75 μL per well at 2-fold the final desired concentration. After the dilution plates are set up the growing cultures are then diluted in a cuvette containing IDM and the optical density is measured at 600 nm. The inoculum is diluted such that 75 μL of this culture in IDM results in a starting bacterial concentration of 2-8×10^5 CFU/mL when added to the dilution plates. The plates are incubated for 16-20 hours for Enterobacteriaceae and Pseudomonas and 20-24 hours for Acinetobacter at 37° C. The MIC values are read visually as the lowest concentration well with no bacterial growth.
(§4) Method for Iron-Depleted Cation-Adjusted Mueller Hinton Broth (IDM) Preparation:
(§5) • Prepare cation-adjusted Mueller Hinton broth as per the manufacturer's recommendations and autoclave. • Add 100 g/L Chelex 100 resin, cover with foil and incubate with stirring for 2 hours • Remove Chelex 100 resin by filtration with 0.45 μm filter flask • Add the following back to the medium: • CaCl2 dihydrate: 82.5 mg/L • MgCl2 hexahydrate: 94.1 mg/L • ZnSO4: 10 μM • Adjust pH of medium to 7.3 with 5 N HCl • Sterilize using a 0.22 µm filter flask

In test [2] the test system is A. baumannii ATCC 19606. The following applies: Acinetobacter baumannii. The method, then: as §1, §2, §3, §4, §5
In test [3] the test system is A. baumannii CDC-0033 producing NDM-1, and OXA-94. The following applies: Acinetobacter baumannii, read-out: Minimum Inhibitory Concentration, CDC-0033. The method, then: as §1, §2, §3, §4, §5
Test [4] relates to A. baumannii CDC-0036 OXA-65, and OXA-24. The following applies: Acinetobacter baumannii, read-out: Minimum Inhibitory Concentration, CDC-0036. The procedure: as §1, §2, §3, §4, §5
In test [5] the test system is A. baumannii CDC-0083 producing NDM-1, PER-7, OXA-23, and OXA-69. The following applies: Acinetobacter baumannii, read-out: Minimum Inhibitory Concentration, CDC-0083. The method, then: as §1, §2, §3, §4, §5
Test [6] deals with A. baumannii IL123 (ABΔ3-ARAEcPore). The note with it: Acinetobacter baumannii, read-out: Minimum Inhibitory Concentration, IL-2123. The procedure: as §1, §2, §3, §4, §5
In test [7] the test system is P. aeruginosa (ΔmexAB-oprM). The following applies: Pseudomonas aeruginosa, read-out: Minimum Inhibitory Concentration, P. aeruginosa ΔmexAB-OprM. The method, then:
as §1, §2, §3, §4, §5

For test [8], the system named is P. aeruginosa ATCC 27853. The note with it: Pseudomonas aeruginosa. The method, then: as §1, §2, §3, §4, §5
The subject of test [9] is P. aeruginosa ATCC 35151. The following applies: Pseudomonas aeruginosa, ATCC35151; iron-depleted MHB (IDM); hyper-permeable strain; read-out: Minimum Inhibitory Concentration, P. aeruginosa ATCC 35151. The method, then: as §1, §2, §3, §4, §5
Test [10] has as its system P. aeruginosa CDC-0054 producing VIM-4, OXA-50, and PAO. The following applies: Pseudomonas aeruginosa, read-out: Minimum Inhibitory Concentration, P. aeruginosa CDC-0054. The method, then: as §1, §2, §3, §4, §5
Test [11] deals with P. aeruginosa CDC-0090 producing KPC-5, OXA-50, and PAO. The following applies: Pseudomonas aeruginosa, read-out: Minimum Inhibitory Concentration, P. aeruginosa CDC-0090. The method, then: as §1, §2, §3, §4, §5
The subject of test [12] is P. aeruginosa CDC-0095 producing OXA-50, and PAO. The note with it: Pseudomonas aeruginosa, read-out: Minimum Inhibitory Concentration, P. aeruginosa CDC-0095. The method, then: as §1, §2, §3, §4, §5
For test [13], the system named is A. baumannii CDC-0045 producing TEM-1D, OXA-23, and OXA-69. The following applies: Acinetobacter baumannii, read-out: Minimum Inhibitory Concentration, CDC-0045.
Test [14] concerns P. aeruginosa CDC-0110. The following applies: Pseudomonas aeruginosa, CDC0110, read-out: Minimum Inhibitory Concentration, P. aeruginosa CDC-0110. The method, then:
as §2, §3, §4, §5

Setting [15] is: ATCC17978, read-out: Minimum Inhibitory Concentration, ATCC 17978.
Where [16] appears, read: ATCC19606, read-out: Minimum Inhibitory Concentration, ATCC 19606.
[17] abbreviates: ATCC27853, read-out: Minimum Inhibitory Concentration, P. aeruginosa ATCC 27853.

Values after ≈ are worked out from the molar mass of the structure shown. Read-outs that look alike come from different tables or passages of the source.

Here are results for three compounds from patent US20230114728A1 (Venatorx Pharmaceuticals, Inc., priority 2019, published 2023).

`NCCCN1CCN(C(=O)N[C@H](C(=O)N[C@H]2Cc3ccc(F)c(C(=O)O)c3OB2O)c2ccc(O)c(O)c2Cl)C(=O)C1=O` (single isomer, unassigned) [Example 28]: the MIC in test [1] (ATCC17978, A. baumannii ATCC 17978, iron-depleted MHB (IDM), read-out: Minimum Inhibitory Concentration, ATCC 17978) was in the range of 0.5 to 1 mg/L (≈ 0.804 to 1.61 µM); in [2] (ATCC19606, A. baumannii ATCC 19606, iron-depleted MHB (IDM), read-out: Minimum Inhibitory Concentration, ATCC 19606), 8 to 16 mg/L (≈ 12.9 to 25.7 µM); in test [3] it was 32 to 64 mg/L (≈ 51.5 to 103 µM); in [4], 32 to 64 mg/L (≈ 51.5 to 103 µM); in [5], 32 to 64 mg/L (≈ 51.5 to 103 µM); in [6], 32 to 64 mg/L (≈ 51.5 to 103 µM). For the same compound, the MIC was 0.5 to 1 mg/L (≈ 0.804 to 1.61 µM) in test [7]; 2 to 4 mg/L (≈ 3.22 to 6.43 µM) in test [8] (ATCC27853, iron-depleted MHB (IDM), read-out: Minimum Inhibitory Concentration, P. aeruginosa ATCC 27853); 0.25 mg/L (≈ 0.402 µM) in test [9]; 2 to 4 mg/L (≈ 3.22 to 6.43 µM) in test [10]; 2 to 4 mg/L (≈ 3.22 to 6.43 µM) in test [11]; 32 to 64 mg/L (≈ 51.5 to 103 µM) in test [12]. In addition, the values for the MIC in [13] and in test [14] were 32 to 64 mg/L (≈ 51.5 to 103 µM) and 8 to 16 mg/L (≈ 12.9 to 25.7 µM), respectively.
With `O=C(O)c1c(F)ccc2c1OB(O)[C@@H](NC(=O)[C@H](NC(=O)N1CCNC1=O)c1c(F)cc(O)c(O)c1Cl)C2` (single isomer, unassigned) [Example 34], the MIC was 0.25 mg/L (≈ 0.451 µM) in test [1] (setting [15]); 0.25 mg/L (≈ 0.451 µM) in test [2] (setting [16]); 0.5 to 1 mg/L (≈ 0.901 to 1.8 µM) in test [3]; 0.5 to 1 mg/L (≈ 0.901 to 1.8 µM) in test [4]; 0.5 to 1 mg/L (≈ 0.901 to 1.8 µM) in test [5]; 2 to 4 mg/L (≈ 3.61 to 7.21 µM) in [6]. In addition, the MIC in [7] is 0.25 mg/L (≈ 0.451 µM); in test [8] (setting [17]), 0.5 to 1 mg/L (≈ 0.901 to 1.8 µM); in test [9] it was 0.25 mg/L (≈ 0.451 µM); in test [10], 0.5 to 1 mg/L (≈ 0.901 to 1.8 µM); in [11], 0.5 to 1 mg/L (≈ 0.901 to 1.8 µM); in [12], 32 to 64 mg/L (≈ 57.7 to 115 µM). For the same compound, the MIC was 0.25 mg/L (≈ 0.451 µM) in test [13] and 0.5 to 1 mg/L (≈ 0.901 to 1.8 µM) in [14].
`CS(=O)(=O)N1CCN(C(=O)N[C@@H](C(=O)N[C@H]2Cc3ccc(F)c(C(=O)O)c3OB2O)c2c(F)cc(O)c(O)c2Cl)C1=O` (single isomer, unassigned) [Example 35]: the MIC in test [1] (setting [15]) is 0.25 mg/L (≈ 0.395 µM); in test [2] (setting [16]) it was 0.25 mg/L (≈ 0.395 µM); in [3] it was 0.5 to 1 mg/L (≈ 0.79 to 1.58 µM); in test [4] it was 0.5 to 1 mg/L (≈ 0.79 to 1.58 µM); in test [5] it was 0.25 mg/L (≈ 0.395 µM); in test [6], 2 to 4 mg/L (≈ 3.16 to 6.32 µM). The MIC in test [7] was 0.25 mg/L (≈ 0.395 µM); in [8] (setting [17]), 0.5 to 1 mg/L (≈ 0.79 to 1.58 µM); in test [9], 0.25 mg/L (≈ 0.395 µM); in [10], 0.5 to 1 mg/L (≈ 0.79 to 1.58 µM); in test [11], 0.5 to 1 mg/L (≈ 0.79 to 1.58 µM); in test [12], 32 to 64 mg/L (≈ 50.6 to 101 µM). The MIC in test [13] is 0.25 mg/L (≈ 0.395 µM); in test [14], 0.5 to 1 mg/L (≈ 0.79 to 1.58 µM).
